Results: patent US20250144067A1, “PERSONALIZED STARVATION THERAPY FOR CANCER” (Faeth Therapeutics, Inc., priority 2021, published 2025)
Where a name gives a salt, the structure may show the parent alone.

Assays:
[1] = tested on: NCI-H292 lung cancer cells; assay: FDA drug screening, complete media vs cholesterol-free media with simvastatin (TABLE 2); assay type: cell-based, human; conditions: for Cholesterol-free media + simvastatin (0.04 μM) / Complete Media: NCI-H292 cells
[2] = tested on: NCI-H292 lung cancer cells; assay: FDA drug screening, complete media vs cholesterol-free media without statin (TABLE 1); assay type: cell-based, human
[3] = cholesterol-free media with simvastatin 0.04 μM, cell growth value in FDA drug screen
[4] = complete media, cell growth value in FDA drug screen
[5] = complete media minus cholesterol-free media + simvastatin, >0 enhanced anti-cancer activity, about 0 neutral, <0 antagonist
[6] = Complete minus Cholesterol-free; greater than 0 enhanced anti-cancer activity, about 0 neutral, below 0 antagonist
[7] = NCI-H292 cells, FDA drug library screen, cholesterol-free media without statin
[8] = NCI-H292 cells, FDA drug library screen, complete media
[9] = Complete minus Cholesterol-free; >0 enhanced anti-cancer activity, about 0 neutral, <0 antagonist
[10] = NCI-H292 cells, cholesterol-free media without statin, FDA drug library screen
[11] = NCI-H292 cells, complete media, FDA drug library screen
[12] = FDA drug library screen, cholesterol-free media with simvastatin 0.04 μM
[13] = NCI-H292 cells, cholesterol-free media without statin
[14] = complete media vs cholesterol-free media + simvastatin (0.04 μM), >0 enhanced anti-cancer activity, about 0 neutral, <0 antagonist
[15] = Complete minus Cholesterol-free; […]
[16] = cholesterol-free media with simvastatin 0.04 μM, FDA drug library screen (TABLE 2)
[17] = complete media, FDA drug library screen (TABLE 2)
[18] = Complete minus Cholesterol-free; greater than 0 enhanced anti-cancer activity, about 0 neutral, below 0 antagonists
[19] = NCI-H292 cells in complete media
[20] = FDA library drug in cholesterol-free media with simvastatin 0.04 μM
[21] = FDA library drug in complete media
[22] = complete vs cholesterol-free media; greater than 0 enhanced anti-cancer activity, about 0 neutral, below 0 antagonists

N[C@@H](Cc1cc(I)c(Oc2cc(I)c(O)c(I)c2)c(I)c1)C(=O)O [L-Thyroxine (sodium salt pentahydrate)]
Cholesterol-free media + simvastatin (0.04 μM) [1, 3]: 0.8275 | Complete Media [1, 4]: 0.8532 | Difference [1, 5]: 0.03 | Difference [2, 6]: −0.15 | Cholesterol-free [2, 7]: 1.238 | Complete [2, 8]: 1.085

N[C@@H](Cc1cc(I)c(Oc2cc(I)c(O)c(I)c2)c(I)c1)C(=O)O.[Na] [L-Thyroxine (sodium)]
Cholesterol-free media + simvastatin (0.04 μM) [1, 3]: 0.8676 | Complete Media [1, 4]: 0.8889 | Difference [1, 5]: 0.02 | Difference [2, 9]: −0.07 | Cholesterol-free [2, 10]: 1.137 | Complete [2, 11]: 1.071

N[C@@H](Cc1cc(I)c(Oc2cc(I)c(O)c(I)c2)c(I)c1)C(=O)O [L-Thyroxine]
Cholesterol-free media + simvastatin (0.04 μM) [1, 12]: 1.059 | Complete Media ([1]; FDA drug library screen, complete media): 1.284 | Difference [1, 5]: 0.23 | Difference [2, 9]: −0.28 | Cholesterol-free [2, 13]: 1.11 | Complete ([2]; NCI-H292 cells, complete media): 0.8302

N[C@@H](Cc1c[nH]c2ccccc12)C(=O)O [L-Tryptophan]
Cholesterol-free media + simvastatin (0.04 μM) ([1]; drug in cholesterol-free media with simvastatin 0.04 μM): 1.157 | Complete Media ([1]; drug in complete media): 0.9202 | Difference [1, 14]: −0.24 | Cholesterol-free [2, 10]: 1.009 | Complete [2, 11]: 1.103 | Difference ([2]; complete vs cholesterol-free media; >0 enhanced anti-cancer activity, about 0 neutral, <0 antagonist): 0.09

CC(C)[C@H](N)C(=O)O [L-Valine]
Cholesterol-free media + simvastatin (0.04 μM) ([1]; cholesterol-free media with simvastatin 0.04 μM, […]): 0.8399 | Complete Media ([1]; complete media, […]): 0.8676 | Difference ([1]; complete media minus cholesterol-free media + simvastatin, […]): 0.03 | Difference [2, 15]: −0.26 | Cholesterol-free [2, 13]: 1.382 | Complete ([2]; NCI-H292 cells, complete media): 1.127

CC(CCc1ccccc1)NCC(O)c1ccc(O)c(C(N)=O)c1 (stereo not shown) [Labetalol (hydrochloride)]
Cholesterol-free media + simvastatin (0.04 μM) [1, 16]: 1.147 | Complete Media [1, 17]: 1.128 | Difference ([1]; complete media minus cholesterol-free media + simvastatin (0.04 μM), >0 enhanced anti-cancer activity, about 0 neutral, <0 antagonist): −0.02 | Difference [2, 18]: −0.64 | Complete [2, 19]: 0.9816

CCOC(=O)C1=C(C)NC(C)=C(C(=O)OCC)C1c1ccccc1/C=C/C(=O)OC(C)(C)C [Lacidipine]
Cholesterol-free media + simvastatin (0.04 μM) [1, 20]: 1.8 | Complete Media [1, 21]: 0.96 | Difference [1, 14]: −0.84 | Difference [2, 9]: −0.07 | Cholesterol-free [2, 10]: 1.081 | Complete [2, 11]: 1.013

OC[C@@H](O)[C@@H](O[C@@H]1O[C@H](CO)[C@H](O)[C@H](O)[C@H]1O)[C@H](O)[C@@H](O)CO [Lactitol (monohydrate)]
Cholesterol-free media + simvastatin (0.04 μM) [1, 3]: 1.183 | Complete Media [1, 4]: 1.215 | Difference [1, 5]: 0.03 | Difference [2, 6]: −0.17 | Cholesterol-free [2, 7]: 1.059 | Complete [2, 8]: 0.8908

OC[C@H]1O[C@@H](O[C@H]2[C@H](O)[C@@H](O)[C@@H](O)O[C@@H]2CO)[C@H](O)[C@@H](O)[C@H]1O [Lactose]
Complete Media [1, 21]: 0.9497 | Difference [1, 14]: −0.28 | Difference [2, 18]: −0.48 | Complete [2, 19]: 0.6552

O=C(C[S+]([O-])Cc1ccco1)NC/C=C\COc1cc(CN2CCCCC2)ccn1 (stereo not shown) [Lafutidine]
Cholesterol-free media + simvastatin (0.04 μM) [1, 3]: 1.203 | Complete Media [1, 4]: 1.221 | Difference [1, 5]: 0.02 | Difference [2, 9]: 0.01 | Cholesterol-free [2, 10]: 1.364 | Complete [2, 11]: 1.371

Nc1ccn([C@@H]2CS[C@H](CO)O2)c(=O)n1 [Lamivudine]
Cholesterol-free media + simvastatin (0.04 μM) [1, 20]: 1.644 | Difference [1, 14]: −0.47 | Difference [2, 9]: −0.22 | Cholesterol-free [2, 13]: 1.216 | Complete ([2]; NCI-H292 cells, complete media): 0.9947

Nc1nnc(-c2cccc(Cl)c2Cl)c(N)n1 [Lamotrigine]
Cholesterol-free media + simvastatin (0.04 μM) [1, 20]: 1.437 | Complete Media [1, 21]: 1.093 | Difference [1, 14]: −0.34 | Difference [2, 6]: −0.08 | Cholesterol-free [2, 7]: 1.043 | Complete [2, 8]: 0.9644

CC(=O)O[C@H]1C[C@H](O[C@H]2[C@@H](O)C[C@H](O[C@H]3[C@@H](O)C[C@H](O[C@H]4CC[C@@]5(C)[C@H](CC[C@@H]6[C@@H]5C[C@@H](O)[C@]5(C)[C@@H](C7=CC(=O)OC7)CC[C@]65O)C4)O[C@@H]3C)O[C@@H]2C)O[C@H](C)[C@H]1O[C@@H]1O[C@H](CO)[C@@H](O)[C@H](O)[C@H]1O [Lanatoside C]
Cholesterol-free media + simvastatin (0.04 μM) [1, 16]: −0.002744 | Complete Media [1, 17]: −0.008403 | Difference ([1]; complete media minus cholesterol-free media + simvastatin (0.04 μM), […]): −0.01 | Difference [2, 15]: −0.02 | Cholesterol-free [2, 10]: 7.102E−18 | Complete [2, 11]: −0.02112

CC1(C)OC[C@@H](COC(=O)CCc2ccc(OC[C@@H](O)CNCCNC(=O)N3CCOCC3)cc2)O1 [Landiolol (hydrochloride)]
Cholesterol-free media + simvastatin (0.04 μM) [1, 12]: 1.311 | Difference [1, 14]: −0.14 | Cholesterol-free [2, 13]: 1.352 | Complete ([2]; NCI-H292 cells, complete media): 0.8842 | Difference [2, 22]: −0.47

Cc1c(OCC(F)(F)F)ccnc1C[S+]([O-])c1nc2ccccc2[nH]1 (stereo not shown) [Lansoprazole]
Cholesterol-free media + simvastatin (0.04 μM) [1, 20]: 1.103 | Complete Media [1, 21]: 0.6471 | Difference [1, 14]: −0.46 | Cholesterol-free [2, 13]: 1.34 | Complete ([2]; NCI-H292 cells, complete media): 0.9564 | Difference [2, 22]: −0.38
